From patent US20230227437A1, “IMMUNOMODULATOR” (priority 2020, published 2023)
pIC50, pKd: −log10 of the molar value.

Key:
human IL-17A (hIL-17A) = biological target: T1, human IL-17A (hIL-17A) (Homo sapiens, UniProt Q16552); experiment: IL-17A enzyme-linked immunosorbent assay (competitive ELISA, receptor-ligand binding)
T1 construct: purchased Sino Biological Inc. 12047-H07B
T1 sequence (Q16552 24-155): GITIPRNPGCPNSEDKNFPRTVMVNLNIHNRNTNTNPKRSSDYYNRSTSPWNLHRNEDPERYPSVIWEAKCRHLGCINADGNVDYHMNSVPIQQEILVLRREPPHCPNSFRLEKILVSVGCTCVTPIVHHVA
Experimental: The inhibition of receptor-ligand binding by human IL-17A (hIL-17A) inhibitors was detected by competitive ELISA. A 96-well plate was inoculated 0.2 μg/ml IL-17 (Sino Biological Inc. Cat #12047-H07B) for incubation at 37° C. for 30 min, 100 μL for per well. The 96-well plate was washed four times with phosphate buffered saline (PBS) containing Tween-20 (PBST, 0.05% Tween-20), 200 μL for per well each time. 200 μL of 5% skim milk were added into the 96-well plate for incubation on a shaker at 25° C. for 30 min. The 96-well plate was washed four times with PBST (0.05% Tween-20), and added with 89 μL of PBST and 1 μL of a compound to be measured (100×), in which a concentration the compound to be measured (100×) was 0.003 μM-30 μM. The mixture was mixed evenly and incubated at 25° C. for 10 min. The mixture was added with 10 μL of 16 nM IL-17R, followed by incubation at 25° C. for 30 min. After washing the 96-well plate 4 times, 100 μL of anti-Fc tag horseradish peroxidase (HRP) coupled antibody were added for incubation on a shaker at 25° C. for 30 min. After washing the 96-well plate 4 times, 100 μL of 3,3′,5,5′-tetramethylbenzidine (TMB) substrate solution were added to the 96-well plate for incubation away from light at 25° C. After addition of 20% HCl, an absorbance was measure by a microplate reader at 450 nm.
The compounds prepared according to the above method were assayed for human IL-17A inhibitory activity.

hIL-17A = biological target: T2, hIL-17A (Homo sapiens, UniProt Q16552); experiment: Inhibition of hIL-17A-induced chemokine GROα/CXCL1 production in HT-29 cell; assay type: cell-based
T2 construct: purchased R&D 317-ILB
T2 sequence (Q16552 20-155 limits assumed): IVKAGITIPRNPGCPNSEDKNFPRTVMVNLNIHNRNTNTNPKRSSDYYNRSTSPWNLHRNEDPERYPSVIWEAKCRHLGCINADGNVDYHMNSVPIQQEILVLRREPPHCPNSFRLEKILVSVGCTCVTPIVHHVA
Experimental: Human colorectal adenocarcinoma cell HT-29 was inoculated to a 96-well plate (5×10^4 for per well), and incubated at 37° C. on an incubator overnight. A mixture of 30 ng/mL hIL-17A protein (R&D, #317-ILB) with gradient concentrations of IL-17A small molecule inhibitors or with 0.3 μg/mL positive control IL-17A antibody (R&D, #AF-317-NA) was incubated for 1 h at 37° C., and added into the 96-well plate to incubated with HT-29 at 37° C. for 48 h. A level of GROα in a cell culture supernatant was then detected using an ELISA kit for GROα (Cisbio, #62HCXC1peg).
Inhibitory effect of the compound prepared in Examples on hIL-17A-induced chemokine GROα/CXCL1 production in HT-29 cell was tested according to the methods of Experimental Examples 1 and 2. […] “-” indicated not tested. According to the results, the compounds provided herein have good human IL-17A inhibitory activity and can be effectively used in the treatment of diseases associated with abnormal hIL-17A activity.

[1] = Drug metabolism properties (pharmacokinetics) in mice; assay type: in vivo; details: mouse, plasma, intravenous injection/oral gavage, read-out: Oral bioavailability F % (mice)
Experimental: In order to investigate the drug metabolism property of the compounds provided herein in mice, a compound solution was given to 6 mice by intravenous injection/oral gavage at corresponding doses. Mice were divided into groups A and B for each administration, where anticoagulated whole blood was collected from group A at 5 min, 30 min, 2 h and 8 h after drug administration; and anticoagulated whole blood was collected from group B at 15 min, 1 h, 4 h and 24 h after drug administration. plasma was separated.
(§1) Plasma concentrations of compounds were determined by standard curve calibration method using LC-MS. Using Winnolin 5.2 software, plasma concentration-time data were fitted to pharmacokinetic parameters, including elimination half-life (T1/2), area under the plasma pharmacokinetic curve at the sampling endpoint (AUClast), peak concentration (Cmax), apparent volume of distribution (Vz), total clearance ration (Cl), and absolute bioavailability (F %).

[2] = Drug metabolism properties (pharmacokinetics) in rats; assay type: in vivo; details: plasma; rat, intravenous injection/oral gavage; read-out: Oral bioavailability F % (rat)
Experimental: (§2) In order to investigate the drug metabolism property of the compounds provided herein in rats, a compound solution was given to 3 rats by intravenous injection/oral gavage at corresponding doses. After 5 min, 15 min, 30 min, 1 h, 2 h, 4 h, 8 h and 24 h administration, anticoagulated whole blood was collected from rats, and plasma was separated.
as §1

[3] = Drug metabolism properties (pharmacokinetics) in dogs; assay type: in vivo; details: both sexes, plasma; dog, intravenous injection/oral gavage; read-out: Oral bioavailability F % (dog)
Experimental: as §2, with “in dogs,” for “in rats,”, “to 2 groups of dogs (4 dogs (2 males+2 females) for each group)” for “to 3 rats”, “After […]” for “After 5”, “8 h, 12 h, 24” for “8”, “and 36” for “and 24”, “from dogs,” for “from rats,”
as §1

hIL-17A protein = biological target: T3, hIL-17A protein (Homo sapiens, UniProt Q16552); experiment: Binding to hIL-17A protein through surface plasmon resonance (SPR, Biacore 8K); details: for ka / kd: SPR; for binding to hIL-17A (SPR, in words): compared with the positive compound
T3 sequence (Q16552 24-155): T1 sequence (Q16552 24-155)
Experimental: The binding of the compounds provided herein to the hIL-17A protein was tested using SPR, and analyzed using a Biacore 8K system. A positive compound was the compound of Example 32 in WO2020/127685A1.

hIL-17A/RA = biological target: T4, hIL-17A/RA (Homo sapiens, UniProt Q16552); experiment: Reversibility of binding by jump dilution ELISA (hIL-17A/hIL-17RA); details: for maintenance of binding to and inhibition of hIL-17A protein (jump dilution, in words): compared with the positive compound
T4 construct: biotin label (inferred from streptavidin-HRP detection)
T4 sequence (Q16552 24-155): T1 sequence (Q16552 24-155)
Experimental: The reversibility of the binding of the compounds in Examples to hIL-17A and the binding time of the compound-protein complex were qualitatively and quantitatively analyzed by jump dilution assay. The positive compound was the compound of Example 32 in WO2020/127685 A1. 7 nM hIL-17RA were inoculated to a 96-well plate (100 μL for per well), and incubated at 37° C. for 30 min. A blank group was 100 μL of coating buffer solution. After […] incubation at 4° C., the 96-well plate was washed with PBST (0.05% Tween-20) 4 times, 200 μL for per well each time. The 96-well plate was added with 200 μL 3% BSA (PBST diluted) and closed on a shaker at 37° C. for 30 min. […] The configured hIL7A was mixed with an equal volume of compound in a 200 ul centrifuge tube to obtain a protein-compound mixture. The protein-compound mixture was subjected to pre-incubation at room temperature for 15 min. The protein-compound mixture, positive control group and negative control group were diluted 200×. After closing, the 96-well plate was washed 4 times, and added with dilution 100 μL for per well to incubate at 25° C. for 28, 24, 5, 2 and 0 h. After washing the plate 4 times, 100 μL of Streptavidin-HRP coupled antibody diluted with 1% BSA was added and then incubated for 30 min on a shaker at 25° C. After washing the plate 4 times, 100 μL of TMB substrate solution were added, and incubated away from light for 5-15 min at 25° C. (depending on the color of the reaction). After addition of 20% HCl, an absorbance was measure by a microplate reader at 450 nm.

[4] = test system: imiquimod cream-induced psoriasis model; experiment: Pharmacodynamic test of imiquimod cream-induced psoriasis model in mice; assay type: in vivo, C57BL/6N mice
Experimental: The backs of […] female C57BL/6N mice were shaved approximately 2.5×4 cm, and imiquimod (IMQ, Imiquimod) cream was applied continuously from day 1 to day 5 to establish a psoriasis model. The compound 26 provided herein (3, 10, 30 mg/kg) was given once daily by gavage to the mice, an IL-17A antibody solution (Ab, 2 mg/kg) was given by intraperitoneal injection every other day to the mice, or a dexamethasone solution (10 mg/kg) was given once daily by intraperitoneal injection to the mice. […] A skin thickness of mice was measured on the first day and fifth day to examine IMQ-induced skin thickening (FIG. 3B).
The skin of each group of mice was collected on the fifth day to detect IL6 mRNA levels by RT-qPCR (FIG. 3C). […] The plasma of mice in each group was collected on the fifth day to determine the level of IL-6 protein (FIG. 3D).

Structure (SMILES) | pIC50 (human IL-17A (hIL-17A)) | pIC50 (hIL-17A) | bioavailability [1] | bioavailability [2] | bioavailability [3] | pKd (hIL-17A protein) | ka (hIL-17A protein) | kd (hIL-17A protein) | binding to hIL-17A (SPR, in words) (hIL-17A protein) | maintenance of binding to and inhibition of hIL-17A protein (jump dilution, in words) (hIL-17A/RA) | skin pathological injury, HE staining ([4]; 30 mg/kg, fifth day, FIGS. 4A-4D) | IMQ-induced skin inflammation, AUC of PASI scoring ([4]; 3, 10, 30 mg/kg once daily by gavage, FIG. 3A) | skin IL6 mRNA levels by RT-qPCR ([4]; fifth day, FIG. 3C) | IL-6 protein level in plasma ([4]; fifth day, FIG. 3D) | IMQ-induced skin thickening ([4]; skin thickness first day and fifth day, FIG. 3B) | 50% enzyme activity retention time, Value on hIL-17A/RA (5X cpds) (hIL-17A/RA; jump dilution, 5X cpds) | 50% enzyme activity retention time, Value on hIL-17A/RA (10X cpds) (hIL-17A/RA; jump dilution)
Cc1n[nH]c(C)c1-c1ccc(NC(=O)[C@@H](NC(=O)c2ccnn2C(C)C)C2c3ccc(F)cc3OCC23CC3)cn1 (stereo partly shown) [Compound 18] | 6.79 | 6.48 | 55% | 18% | 41% |  |  |  |  |  |  |  |  |  |  |  | 
Cc1nonc1C(=O)N[C@H](C(=O)Nc1ccc(-c2c(C)n[nH]c2C)cc1)C1c2ccc(F)cc2OCC12CC2 (stereo partly shown) [Compound 24] | 7.28 | 7.52 | 51% | 56% | 27% | 11.41 | 12400 M⁻¹ s⁻¹ | 4.8e-08 s⁻¹ | strong binding to hIL-17A and were much stronger than the positive compound |  |  |  |  |  |  |  | 
CCc1nonc1C(=O)N[C@H](C(=O)Nc1ccc(-c2c(C)n[nH]c2C)nc1)C1c2ccc(F)cc2OCC12CC2 (stereo partly shown) [Compound 26] | 7.15 | 6.57 | 54% | 16% |  |  | 21300 M⁻¹ s⁻¹ | 1.98e-08 s⁻¹ | strong binding to hIL-17A and were much stronger than the positive compound | able to maintain binding to and inhibit the activity of hIL-17A protein for a long time | effective in inhibiting IMQ-induced skin inflammatory cell infiltration and damage | attenuated the level of IMQ-induced skin inflammation with effects similar to those of the IL-17A antibody | dose-dependent reversion | inhibited in a dose-dependent manner | reversed the skin thickening caused by IMQ to varying degrees |  | 
CCc1nonc1C(=O)N[C@H](C(=O)Nc1ccc(-c2c(C)n[nH]c2C)cc1)C1c2cc(F)c(F)cc2OCC12CC2 (stereo partly shown) [Compound 43] | 7.26 | 7.24 | 49% | 36% | 18% | 11.88 | 14200 M⁻¹ s⁻¹ | 1.87e-08 s⁻¹ | strong binding to hIL-17A and were much stronger than the positive compound | able to maintain binding to and inhibit the activity of hIL-17A protein for a long time |  |  |  |  |  | >28 h | >28 h
Cc1n[nH]c(C)c1-c1ncc(NC(=O)[C@@H](NC(=O)c2ccnn2C(C)C)C2c3cc(F)c(F)cc3OCC23CC3)cc1F (stereo partly shown) [Compound 47] | 7.06 | 6.76 |  |  |  | 11.77 | 20400 M⁻¹ s⁻¹ | 3.44e-08 s⁻¹ | strong binding to hIL-17A and were much stronger than the positive compound | able to maintain binding to and inhibit the activity of hIL-17A protein for a long time |  |  |  |  |  |  | >28 h
Cc1n[nH]c(C)c1-c1ccc(NC(=O)[C@@H](NC(=O)c2nonc2C2CC2)C2c3cc(F)c(F)cc3OCC23CC3)cc1 (stereo partly shown) [Compound 49] | 6.84 | 6.84 | 37% | 17% | 20% |  |  |  |  |  |  |  |  |  |  |  | 
CCc1nonc1C(=O)N[C@H](C(=O)Nc1ccc(-c2c(C)n[nH]c2C)cc1)C1c2ccc(F)c(F)c2OCC12CC2 (stereo partly shown) [Compound 58] | 7.27 | 6.96 | 26% | 28% | 16% |  |  |  |  |  |  |  |  |  |  |  | 
Cc1n[nH]c(C)c1-c1ccc(NC(=O)[C@@H](NC(=O)OC2CC2)C2c3cc(F)c(F)cc3OCC23CC3)cc1 (stereo partly shown) [Compound 106] | 7.18 | 6.92 |  |  |  |  |  |  |  |  |  |  |  |  |  |  | 
COC(=O)N[C@H](C(=O)Nc1ccc(-c2c(C)n[nH]c2C)cc1)C1c2cc(F)c(F)cc2OCC12CC2 (stereo partly shown) [Compound 107] | 7.29 | 6.42 |  |  |  |  |  |  |  |  |  |  |  |  |  |  | 
